Measured values reported in the NIST ThermoML archive (doi:10.1016/j.jct.2004.04.013).
Several values for one entry are separate records, joined by “and”; a condition that tells them apart may be missing. Identical values can stand only once.

Conditions: Liquid, Pulse-echo method

c1ccccc1 [benzene]
Conditions	speed of sound
283.15 K, 101 kPa	1371.6 m/s
283.15 K, 1112 kPa	1376.8 m/s
283.15 K, 2281 kPa	1382.4 m/s
283.15 K, 4616 kPa	1393.2 m/s
283.15 K, 6766 kPa	1403.3 m/s
283.15 K, 9100 kPa	1413.6 m/s
283.15 K, 11628 kPa	1424.5 m/s
283.15 K, 14278 kPa	1436 m/s
283.15 K, 15957 kPa	1443.4 m/s
283.15 K, 18556 kPa	1454 m/s
283.15 K, 20823 kPa	1463 m/s
283.15 K, 23405 kPa	1473.4 m/s
298.15 K, 101 kPa	1299.9 m/s and 1300.2 m/s
298.15 K, 888 kPa	1305 m/s
298.15 K, 1246 kPa	1305.8 m/s
298.15 K, 2254 kPa	1311.8 m/s
298.15 K, 2506 kPa	1312.2 m/s
298.15 K, 4580 kPa	1322.5 m/s
298.15 K, 4719 kPa	1323.9 m/s
298.15 K, 6991 kPa	1334.4 m/s
298.15 K, 7131 kPa	1335.5 m/s
298.15 K, 9327 kPa	1346.2 m/s
298.15 K, 9335 kPa	1346.2 m/s
298.15 K, 9408 kPa	1346 m/s
298.15 K, 11563 kPa	1355.8 m/s
298.15 K, 11640 kPa	1357 m/s
298.15 K, 14137 kPa	1368.5 m/s
298.15 K, 14317 kPa	1368.6 m/s
298.15 K, 15927 kPa	1375.9 m/s
298.15 K, 16524 kPa	1379.1 m/s
298.15 K, 18655 kPa	1388.6 m/s
298.15 K, 18844 kPa	1389 m/s
298.15 K, 20826 kPa	1398.1 m/s
298.15 K, 21001 kPa	1398.6 m/s
298.15 K, 23151 kPa	1407.9 m/s
298.15 K, 23834 kPa	1410.7 m/s
298.15 K, 25699 kPa	1418.5 m/s
298.15 K, 26172 kPa	1420.5 m/s
298.15 K, 28369 kPa	1428.5 m/s
313.15 K, 101 kPa	1230.8 m/s
313.15 K, 2047 kPa	1241.3 m/s
313.15 K, 3268 kPa	1247.8 m/s
313.15 K, 5111 kPa	1257.8 m/s
313.15 K, 7199 kPa	1268.7 m/s
313.15 K, 9383 kPa	1280 m/s
313.15 K, 11613 kPa	1291.3 m/s
313.15 K, 14139 kPa	1303.7 m/s
313.15 K, 16386 kPa	1314.6 m/s
313.15 K, 18686 kPa	1325.5 m/s
313.15 K, 21242 kPa	1337.2 m/s
313.15 K, 23254 kPa	1346.4 m/s
313.15 K, 24384 kPa	1351.3 m/s
313.15 K, 25607 kPa	1357.2 m/s
313.15 K, 25608 kPa	1357.3 m/s
313.15 K, 28210 kPa	1368.6 m/s
333.15 K, 101 kPa	1142.4 m/s
333.15 K, 1260 kPa	1148 m/s
333.15 K, 2426 kPa	1155 m/s
333.15 K, 5026 kPa	1170.5 m/s
333.15 K, 7135 kPa	1182.9 m/s
333.15 K, 9195 kPa	1194.5 m/s
333.15 K, 11729 kPa	1208.4 m/s
333.15 K, 14011 kPa	1220.6 m/s
333.15 K, 16310 kPa	1232.7 m/s
333.15 K, 18687 kPa	1244.8 m/s
333.15 K, 20059 kPa	1251.8 m/s
333.15 K, 21112 kPa	1257.2 m/s
333.15 K, 23196 kPa	1267.4 m/s
333.15 K, 25517 kPa	1278.7 m/s
333.15 K, 28165 kPa	1287.7 m/s

ClC(Cl)(Cl)Cl [tetrachloromethane]
Conditions	speed of sound [m/s]
283.15 K, 101 kPa	969.1
283.15 K, 497 kPa	970.5
283.15 K, 1065 kPa	972.7
283.15 K, 2192 kPa	976.9
283.15 K, 2306 kPa	977.4
283.15 K, 3433 kPa	981.6
283.15 K, 5102 kPa	987.7
283.15 K, 5958 kPa	990.8
283.15 K, 7972 kPa	998
283.15 K, 8771 kPa	1000.6
283.15 K, 9833 kPa	1004.6
283.15 K, 11260 kPa	1009.5
283.15 K, 12970 kPa	1015.5
283.15 K, 13650 kPa	1017.6
283.15 K, 16043 kPa	1026
283.15 K, 19058 kPa	1035.9
283.15 K, 22343 kPa	1046.6
283.15 K, 25816 kPa	1057.5
283.15 K, 30453 kPa	1071.7
298.15 K, 101 kPa	921.1
298.15 K, 583 kPa	923.1
298.15 K, 865 kPa	924.2
298.15 K, 887 kPa	924.4
298.15 K, 1384 kPa	926.4
298.15 K, 1731 kPa	927.8
298.15 K, 1900 kPa	928.4
298.15 K, 2056 kPa	929.1
298.15 K, 2905 kPa	932.5
298.15 K, 3020 kPa	933
298.15 K, 3919 kPa	936.6
298.15 K, 4367 kPa	938.4
298.15 K, 4908 kPa	940.5
298.15 K, 5436 kPa	942.6
298.15 K, 5946 kPa	944.5
298.15 K, 6868 kPa	948
298.15 K, 7358 kPa	949.9
298.15 K, 7761 kPa	951.5
298.15 K, 8818 kPa	955.5
298.15 K, 8930 kPa	955.9
298.15 K, 9903 kPa	959.6
298.15 K, 10321 kPa	961.2
298.15 K, 11239 kPa	964.6
298.15 K, 12541 kPa	969.3
298.15 K, 13397 kPa	972.5
298.15 K, 14945 kPa	978
298.15 K, 15313 kPa	979.4
298.15 K, 17404 kPa	986.8
298.15 K, 17674 kPa	987.8
298.15 K, 20253 kPa	996.7
298.15 K, 20404 kPa	997.2
298.15 K, 22533 kPa	1004.5
298.15 K, 24855 kPa	1012.3
298.15 K, 24984 kPa	1012.8
298.15 K, 25186 kPa	1013.4
298.15 K, 27693 kPa	1021.7
298.15 K, 29953 kPa	1029
298.15 K, 30569 kPa	1030.8
313.15 K, 101 kPa	874.2
313.15 K, 108 kPa	874.2
313.15 K, 478 kPa	875.9
313.15 K, 894 kPa	877.7
313.15 K, 1827 kPa	881.9
313.15 K, 2938 kPa	886.7
313.15 K, 4119 kPa	891.6
313.15 K, 5135 kPa	896.1
313.15 K, 5591 kPa	898
313.15 K, 6975 kPa	903.6
313.15 K, 8334 kPa	909.4
313.15 K, 10049 kPa	916.2
313.15 K, 12992 kPa	927.9
313.15 K, 14421 kPa	933.4
313.15 K, 16421 kPa	941.1
313.15 K, 18812 kPa	949.9
313.15 K, 20514 kPa	956.3
313.15 K, 25209 kPa	972.9
313.15 K, 31645 kPa	994.8
333.15 K, 101 kPa	813
333.15 K, 967 kPa	817.4
333.15 K, 1691 kPa	820.9
333.15 K, 2195 kPa	823.4
333.15 K, 3177 kPa	828.1
333.15 K, 5118 kPa	837.4
333.15 K, 5595 kPa	839.5
333.15 K, 7312 kPa	847.3
333.15 K, 8236 kPa	851.5
333.15 K, 9201 kPa	855.8
333.15 K, 10593 kPa	862
333.15 K, 11851 kPa	867.4
333.15 K, 13131 kPa	872.9
333.15 K, 14740 kPa	879.6
333.15 K, 15989 kPa	884.8
333.15 K, 17758 kPa	892.1
333.15 K, 19476 kPa	898.9
333.15 K, 20905 kPa	904.6
333.15 K, 22422 kPa	910.5
333.15 K, 25433 kPa	922
333.15 K, 27880 kPa	931.1
333.15 K, 31372 kPa	943.7
